Measurements as given in BindingDB's records for doi:10.1021/jm00172a005 (Kissei Pharmaceutical, 1990).

Tests used:
[1] = target: Chymotrypsinogen A (Bos taurus) (UniProt P00766); experiment: Tested for inhibition of Chymotrypsinogen from bovine
[2] = target: Chymotrypsinogen A (Bos taurus) (UniProt P00766); experiment: as above; remark: listed apart in the source

| IC50 [1] [µM] | IC50 [2] [µM] | Structure (SMILES) |
| --- | --- | --- |
| > 100 |  | CC(C)CC(=O)N[C@H](C(=O)N[C@H](C(=O)N[C@@H](CC(C)C)[C@@H](O)CC(=O)N[C@@H](C)C(=O)N[C@@H](CC(C)C)[C@@H](O)CC(=O)O)C(C)C)C(C)C [PEPSTATIN] |
|  | > 100 | CC(C)OC(=O)[C@H](O)[C@H](CC1CCCCC1)NC(=O)[C@H](Cc1c[nH]cn1)NC(=O)[C@@H](CC(=O)N1CCOCC1)Cc1cccc2ccccc12 [4-Cyclohexyl-2-hydroxy-3-[3-(1H-imidazol-4-yl)-2-(4-morpholin-4-yl-2-naphthalen-1-ylmethyl-4-oxo-butyrylamino)-propionylamino]-butyric acid isopropyl ester] |
